Test [1] deals with Escherichia coli. As to the kind of experiment: Antibacterial activity against Escherichia coli by broth dilution method. The class given is functional. A general note: Broth dilution looks for growth in wells or tubes with falling amounts of substance.
For test [2], the system named is Pseudomonas aeruginosa. Description: Antibacterial activity against Pseudomonas aeruginosa by broth dilution method. The test is classed as functional.
The target of test [3] is DNA gyrase subunit A/DNA gyrase subunit B (Mycobacterium tuberculosis (strain ATCC 25618 / H37Rv), UniProt P9WG45+P9WG47). As to the kind of experiment: Inhibition of Mycobacterium tuberculosis H37Rv DNA gyrase A/B expressed in Escherichia coli assessed as reduction in supercoiling of relaxed pBR322 DNA substrate measured after 60 mins by ethidium bromide staining based agarose gel electrophoresis method.

The subject of test [4] is Staphylococcus aureus. As to the kind of experiment: Antibacterial activity against Staphylococcus aureus MTCC 96 assessed as zone of inhibition at 100 ug/ml by disc diffusion method. Conditions: read-out: IZ. The class given is functional.
In test [5] the test system is Streptococcus pyogenes. Description: Antibacterial activity against Streptococcus pyogenes MTCC 442 assessed as zone of inhibition at 100 ug/ml by disc diffusion method. Conditions: read-out: IZ. The class given is functional.
In test [6] the test system is Escherichia coli. Description: Antibacterial activity against Escherichia coli MTCC 443 assessed as zone of inhibition at 100 ug/ml by disc diffusion method. The test is classed as functional. As to conditions: read-out: IZ. (A growth-free zone around the sample is the usual read-out of agar diffusion tests.)
Test [7] has as its system Pseudomonas aeruginosa. As to the kind of experiment: Antibacterial activity against Pseudomonas aeruginosa MTCC 424 assessed as zone of inhibition at 100 ug/ml by disc diffusion method. The test is classed as functional. As to conditions: read-out: IZ.
In test [8] the test system is Staphylococcus aureus. As to the kind of experiment: Antibacterial activity against Staphylococcus aureus MTCC 96 assessed as zone of inhibition at 25 ug/ml by agar well diffusion method. The test is classed as functional. As to conditions: read-out: IZ.
Test [9] deals with Streptococcus pyogenes. As to the kind of experiment: Antibacterial activity against Streptococcus pyogenes MTCC 442 assessed as zone of inhibition at 25 ug/ml by agar well diffusion method. The test is classed as functional. As to conditions: read-out: IZ.
For test [10], the system named is Escherichia coli. Description: Antibacterial activity against Escherichia coli MTCC 443 assessed as zone of inhibition at 25 ug/ml by agar well diffusion method. The class given is functional. Conditions: read-out: IZ.
Test [11] deals with Pseudomonas aeruginosa. Description: Antibacterial activity against Pseudomonas aeruginosa MTCC 424 assessed as zone of inhibition at 25 ug/ml by agar well diffusion method. The class given is functional. As to conditions: read-out: IZ.
Test [12] relates to Mycobacterium tuberculosis. Description: Antimycobacterial activity against Mycobacterium tuberculosis H37Rv ATCC 27294 after 5 days by microplate alamar blue assay. The test is classed as functional. As to conditions: H37Rv ATCC 27294, 120 h. In general terms: The colour change of resazurin is a common sign of viable cells or microbes.
Test [13] has as its system Escherichia coli. Description: Antibacterial activity against Escherichia coli assessed as zone of inhibition at 50 ug/ml after 3 days by filter paper disc method. The class given is functional. As to conditions: 72 h, read-out: IZ.
In test [14] the test system is Pseudomonas aeruginosa. Description: Antibacterial activity against Pseudomonas aeruginosa assessed as zone of inhibition at 50 ug/ml after 3 days by filter paper disc method. The test is classed as functional. As to conditions: 72 h, read-out: IZ.
For a further test, the system named is Bacillus spizizenii. Description: Antibacterial activity against Bacillus subtilis ATCC 6633 after 24 hrs by broth dilution method. The class given is functional. Conditions: ATCC 6633, 24 h.
For test [15], the system named is Staphylococcus aureus. Description: Antibacterial activity against Staphylococcus aureus ATCC 29213 after 24 hrs by broth dilution method. The class given is functional. As to conditions: ATCC 29213, 24 h.
The subject of test [16] is Escherichia coli. As to the kind of experiment: Antibacterial activity against Escherichia coli ATCC 11229 after 24 hrs by broth dilution method. The class given is functional. Conditions: ATCC 11229, 24 h.
In test [17] the test system is Proteus vulgaris. Description: Antibacterial activity against Proteus vulgaris […] after 24 hrs by broth dilution method. The test is classed as functional.
The subject of test [18] is Proteus vulgaris. As to the kind of experiment: Antibacterial activity against Proteus vulgaris after 24 hrs. The test is classed as functional.
Test [19] deals with Staphylococcus aureus. As to the kind of experiment: Antibacterial activity against Staphylococcus aureus assessed as zone of inhibition at 1 mg/ml after 32 hrs by agar-well diffusion method. Conditions: read-out: IZ. The test is classed as functional.
In another test the test system is Klebsiella pneumoniae. Description: Antibacterial activity against Klebsiella pneumoniae assessed as zone of inhibition at 1 mg/ml after 32 hrs by agar-well diffusion method. The class given is functional. Conditions: read-out: IZ.
Test [20] deals with Pseudomonas aeruginosa. Description: Antibacterial activity against Pseudomonas aeruginosa assessed as zone of inhibition at 1 mg/ml after 32 hrs by agar-well diffusion method. The class given is functional. Conditions: read-out: IZ.
In test [21] the test system is Escherichia coli. Description: Antibacterial activity against Escherichia coli assessed as zone of inhibition at 1 mg/ml after 32 hrs by agar-well diffusion method. The test is classed as functional. As to conditions: read-out: IZ.

≈ marks a conversion by molar mass, not a printed value.

With `Cc1ccc2occ(-c3cc4cc(Br)ccc4oc3=O)c2c1`, the minimum inhibitory concentration (MIC) in the test on Escherichia coli [1] and against Pseudomonas aeruginosa [2] was 6.25 to 100 µg/mL (≈ 17.6 to 282 µM) in each case.

Take `O=C1Nc2ccc(F)cc2/C1=N/NC(=O)c1cc2cc([N+](=O)[O-])ccc2o1`: the IC50 (as a rule, the concentration at which inhibition is half-maximal) in test [3] is 50 to 200 µM.

Take `Cc1cc(NS(C)(=O)=O)c2oc(COC(=O)NCc3ccccc3)cc2c1`: the zone of inhibition at 100 µg/mL in the test on Staphylococcus aureus [4], in the test on Streptococcus pyogenes [5], in the test with Escherichia coli [6] and in the test with Pseudomonas aeruginosa [7] was 19 to 28 mm each time.

On to `O=c1oc2ccccc2cc1-c1coc2c1ccc1ccccc12`, for which the MIC in the test with Escherichia coli [1] and against Pseudomonas aeruginosa [2] was 6.25 to 100 µg/mL (≈ 20 to 320 µM) each time.

Take `Cc1ccc2c(-c3cc4cc(Br)ccc4oc3=O)coc2c1`: the minimal inhibitory concentration (MIC) in the test on Escherichia coli [1] and against Pseudomonas aeruginosa [2] was 6.25 to 100 µg/mL (≈ 17.6 to 282 µM) each time.

Regarding `COc1cc(OC)c(-c2cc3cc(C(=O)NN)cc(OC)c3o2)c(OC)c1`, the zone of inhibition at 25 µg/mL in the test on Staphylococcus aureus [8], with Streptococcus pyogenes [9], in the test on Escherichia coli [10] and in the test with Pseudomonas aeruginosa [11] was 21 to 27 mm throughout.

With `O=C(O)c1cn(C2CC2)c2cc(N3CCNCC3)c(F)cc2c1=O` [CIPROFLOXACIN], the minimal inhibitory concentration (MIC) – broadly, the smallest concentration in the dilution series that meets the test's criterion for growth inhibition – is 3.12 µg/mL (≈ 9.43 µM) in test [12] and below 4 µg/mL against Pseudomonas aeruginosa [2]. The zone of inhibition at 50 µg/mL in the test on Escherichia coli [13] and in the test with Pseudomonas aeruginosa [14] was 25 to 28 mm in each case. In addition, the zone of inhibition at 100 µg/mL in the test on Staphylococcus aureus [4], in the test on Streptococcus pyogenes [5], with Escherichia coli [6] and in the test on Pseudomonas aeruginosa [7] was 21 to 28 mm each time.

Consider `COc1ccc(S(=O)(=O)Nc2cc(C)cc3cc(COC(=O)NCc4ccccc4)oc23)cc1`, for which the zone of inhibition at 100 µg/mL in the test on Staphylococcus aureus [4], in the test with Streptococcus pyogenes [5], with Escherichia coli [6] and with Pseudomonas aeruginosa [7] was 19 to 28 mm throughout.

Take `Nc1nn2c(-c3ccc(N4CCCCC4)cc3)cc(-c3cc4ccccc4o3)nc2c1/N=N/c1ccccc1`: the zone of inhibition at 50 µg/mL in the test with Escherichia coli [13] and with Pseudomonas aeruginosa [14] was 9 to 18 mm each time.

With `COc1ccc(-c2nn(-c3ccccc3)cc2/C=C/c2oc3c4c(ccc3c2C(=O)c2ccc(Br)cc2)OCC=C4)cc1OC`, the MIC in the test with Bacillus spizizenii, with Staphylococcus aureus [15], in the test on Escherichia coli [16] and against Proteus vulgaris [17] was 1.6 to 3.1 µg/mL (≈ 2.43 to 4.7 µM) each time.

Turning to `Cc1cc(NS(=O)(=O)c2cccs2)c2oc(COC(=O)NCc3ccccc3)cc2c1`, the zone of inhibition at 100 µg/mL with Staphylococcus aureus [4], in the test on Streptococcus pyogenes [5], in the test on Escherichia coli [6] and in the test with Pseudomonas aeruginosa [7] was 11 to 28 mm throughout.

Turning to `Cc1ccc2c(c1)/C(=N/NC(=O)c1cc3ccccc3o1)C(=O)N2`, in [3], the IC50 lay in the range of 50 to 200 µM.

As to `CCn1cc(C(=O)O)c(=O)c2cc(F)c(N3CCNCC3)cc21` [NORFLOXACIN], the MIC in the test on Proteus vulgaris [18] came to 62.5 µg/mL (≈ 196 µM). For the same molecule, the zone of inhibition at 25 µg/mL in the test with Staphylococcus aureus [8], with Streptococcus pyogenes [9], in the test on Escherichia coli [10] and in the test with Pseudomonas aeruginosa [11] was 19 to 25 mm each time.

In the case of `O=C1Nc2ccc([N+](=O)[O-])cc2/C1=N/NC(=O)c1cc2ccccc2o1`, the IC50 in test [3] was in the range of 50 to 200 µM.

Take `Brc1ccc2oc(-c3csc4nc(-c5cc6ccccc6o5)cn34)cc2c1`: the zone of inhibition at 1000 µg/mL in the test on Staphylococcus aureus [19], with Klebsiella pneumoniae, in the test on Pseudomonas aeruginosa [20] and in the test with Escherichia coli [21] was 6 to 23 mm throughout.

Turning to `Cc1cc(NS(=O)(=O)c2ccccc2)c2oc(COC(=O)NCc3ccccc3)cc2c1`, the zone of inhibition at 100 µg/mL in the test on Staphylococcus aureus [4], with Streptococcus pyogenes [5], in the test on Escherichia coli [6] and with Pseudomonas aeruginosa [7] was 11 to 28 mm throughout.

Turning to `Fc1ccc(-c2csc3nc(-c4cc5cc(Br)ccc5o4)cn23)cc1`, the zone of inhibition at 1000 µg/mL in the test with Staphylococcus aureus [19], with Klebsiella pneumoniae, in the test on Pseudomonas aeruginosa [20] and in the test with Escherichia coli [21] was 6 to 23 mm in each case.

As to `Cc1c(C(=O)NN)oc2ccccc12`, the MIC in test [12] amounted to 6.25 µg/mL (≈ 32.9 µM).

Regarding `COc1ccc2occ(-c3cc4ccccc4oc3=O)c2c1`, the MIC against Escherichia coli [1] and in the test with Pseudomonas aeruginosa [2] was 6.25 to 100 µg/mL (≈ 21.4 to 342 µM) in each case.
